Patent US20170189357A1, “METHODS OF LIMITING MORBIDITY IN HEMOGLOBINOPATHIES” (DUKE UNIVERSITY, priority 2014, published 2017)

Key:
Format in all cases: cell-based, human
[1] = tested on: p60-c-Src; assay: p60-c-Src phosphorylation in SSRBCs (Western blot of membrane ghosts); conditions: 1 μM inhibitor before 1 μg/ml PTx; p<0.0001
Source text: (§1) FIG. 10 is a set of figures showing inhibition of Gai protein increased phosphorylation of p72^syk and p60-c-Src tyrosine kinases in intact SSRBCs. FIG. 10A-FIG. 10G show the kinase expression results for twenty μg of membrane protein ghosts (SSRBC ghosts, n=7, SS1, SS2, SS3, SS4, SS5, SS6 and SS7; and normal RBC ghosts, n=7, AA1, AA2, AA3AA4, AA5, AA6 and AA7) were used per lane. FIG. 10A-FIG. 10D show Western blots and corresponding graphs showing the kinase expression results of protein ghosts which were stained with antibodies against phosphorylated p60-c-Src [p-p60-c-Src (SS1, SS2, SS3, SS4; and AA1, AA2, AA3, AA4)] and p60-c-Src [p60-c-Src (SS1, SS2, SS3, SS4, SS5, SS6, SS7, and AA1, AA2, AA3, AA4, AA5, AA6, AA7)]; and phosphorylated p72^syk [p-Syk (SS1, SS2, SS3, SS4; and AA1, AA2, AA3, AA4)] and p72^syk[Syk (SS1, SS2, SS3, SS4, SS5, SS6, SS7; and AA1, AA2, AA3, AA4, AA5, AA6, AA7)]. Antibody against glycophorin C was used as a loading control. FIG. 10C and FIG. 10D show the quantitative analysis of the data presented as relative kinase expression [SSRBCs (n=7) and AARBCs (n=7)], and as relative kinase phosphorylation [SSRBCs (n=4) and AARBCs (n=4)]. […] Quantitative analysis of the data (normalized according to total kinase expression) is presented as fold change in p60-c-Src phosphorylation (FIG. 10E and FIG. 10F) and Syk phosphorylation (FIG. 10G). […]

[2] = tested on: p60-c-Src; assay: p60-c-Src phosphorylation in normal RBCs (Western blot); conditions: 1 μM PP1; normal RBCs by context (FIG. 10F)
Source text: as §1

[3] = tested on: SSRBCs; assay: SSRBC adhesion to HUVECs after PTx/CTx treatment, with or without tyrosine kinase inhibitors, intermittent flow; conditions: 1 μM inhibitor before 1 μg/ml PTx, shear stress 2 dynes/cm^2, p<0.01
Experimental: FIG. 9 is a set of figures showing that activation of Gas protein increased SSRBC adhesion to endothelial cells via activation of tyrosine kinases. FIG. 9A is a schematic depiction of GPCR pathways along with inhibitors and stimuli of the kinases of these pathways regulating SSRBC adhesion. FIGS. 9B-E are a set of graphs showing adherence of RBCs which were sham-treated, or treated with Pertussis toxin (PTx) (0.5, 1 or 2 μg/ml) (FIGS. 9B-D), 1 μg/ml Cholera toxin (CTx) (FIG. 9B) or phenylarsine oxide (0.1, 10, 20, 40 and 80 μM) (FIG. 9E), or pretreated with 1 μM PP1, 1 μM PP2 or 1 μM piceatannol prior to treatment with 1 μg/ml PTx (FIG. 9C and FIG. 9D). Treated RBCs were tested for adhesion to HUVECs in intermittent flow conditions at different shear stresses. Data are presented as % adherent RBCs (FIG. 9B) or SSRBCs (FIG. 9C-FIG. 9E) at a shear stress of 2 dynes/cm^2. Each graph is representative of 3 different experiments. Error bars show standard error of the mean (SEM). *: p<0.001 compared to sham-treated RBCs; **: p<0.01 compared to PTx-treated RBCs.
Vaso-occlusion is associated with various types of physiological stress. β2-adrenergic receptors (β2AR) stimulation with catacholamines employs both Gas and &Gai (or Ga0) pathways. We first determined the Ga, Gas and/or Gai, in sickle cell regulating tyrosine kinase activation-mediated sickle cell adhesion to endothelial cells (FIG. 9A). Sickle cells adhered to some degree to endothelial cells under intermittent flow conditions at a shear stress of 2 dynes/cm^2. (FIGS. 9B-D). […] The selective Src-family kinase inhibitors, PP1 and PP2 (FIG. 9A), and the non-receptor tyrosine kinase p72^Syk inhibitor, piceatannol (FIG. 9A), inhibited the effect of PTx on sickle cell adhesion by 67±2.7%, 64±1.7% and 60 ±5.5%, respectively (p<0.01) (FIGS. 9C and 9D).

In the case of `Cc1ccc(-c2nn(C(C)(C)C)c3ncnc(N)c23)cc1` [PP1], the “PTx-increased p60-c-Src phosphorylation in sickle cells” value [1] is reported as “to levels below baseline phosphorylation”, the “phosphorylation of p60-c-Src, inhibitor effect” value [2] is reported as “inhibited” and the “inhibition of the effect of PTx on sickle cell adhesion” value [3] is reported as 67±2.7%.
